Data as given in patent US20260241012A1, “1,8-NAPHTHYRIDIN-2-ONE HETEROBIFUNCTIONAL BCL6 DEGRADERS” (Treeline Biosciences, Inc., priority 2022, published 2026).

Molecular target: T1, N-terminal HiBiT tagged BCL6 (Homo sapiens, UniProt P41182)
T1 construct: expressed in transfected cells; host or cells: HT1080 (ATCC CCL-121), stably transduced with lentivirus pLV-UBC-N-HiBiT-BCL6-PGK-puro
Assay: HiBiT based degradation assay
Format: cell-based
Details: HT1080 cells expressing N-terminal HiBiT tagged BCL6, 5 hours of incubation; for Ymin (5 hr): BCL6 degradation normalized with DMSO control; for DC50: four-parameter logistic model, read-out: EC50 (5 hr)
Procedure, shortened: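 Degradation measured by luminescence from the Nano-Glo HiBiT lytic reagent (15 min, room temperature), normalized to DMSO controls and fitted to a four-parameter curve.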

Row | SMILES | Ymin (5 hr) | DC50 [µM]
1 | CNC(=O)COc1cc2cc(Nc3nc(N4CCC(CN5CCN(c6cccc7c(C8CCC(=O)NC8=O)nn(C)c67)C[C@@H]5C)CC4)ncc3Cl)cnc2n(C(C)C)c1=O (stereo partly drawn) [Compound 192a, 2-[[6-[[5-chloro-2-[4-[[(2S)-4-[3-(2,6-dioxo-3-piperidyl)-1-methyl-indazol-7-yl]-2-methyl-piperazin-1-yl]methyl]-1-piperidyl]pyrimidin-4-yl]amino]-1-isopropyl-2-oxo-1,8-naphthyridin-3-yl]oxy]-N-methyl-acetamide] | ++++ (Ymin < 30%) | 0.01 to 0.1
2 | CNC(=O)COc1cc2cc(Nc3nc(N4CCC(CN5CCN(c6cccc7c(C8CCC(=O)NC8=O)nn(C)c67)C[C@H]5C)CC4)ncc3Cl)cnc2n(C(C)C)c1=O (stereo partly drawn) [Compound 192b, 2-[[6-[[5-chloro-2-[4-[[(2R)-4-[3-(2,6-dioxo-3-piperidyl)-1-methyl-indazol-7-yl]-2-methyl-piperazin-1-yl]methyl]-1-piperidyl]pyrimidin-4-yl]amino]-1-isopropyl-2-oxo-1,8-naphthyridin-3-yl]oxy]-N-methyl-acetamide] | ++++ (Ymin < 30%) | 0.01 to 0.1
3 | CNC(=O)COc1cc2cc(Nc3nc(N4CCC(CN5[C@H](C)CN(c6cccc7c(C8CCC(=O)NC8=O)nn(C)c67)C[C@@H]5C)CC4)ncc3Cl)cnc2n(C(C)C)c1=O (stereo partly drawn) [Compound 197a, 2-[[6-[[5-chloro-2-[4-[[(2R,6S)-4-[3-(2,6-dioxo-3-piperidyl)-1-methyl-indazol-7-yl]-2,6-dimethyl-piperazin-1-yl]methyl]-1-piperidyl]pyrimidin-4-yl]amino]-1-isopropyl-2-oxo-1,8-naphthyridin-3-yl]oxy]-N-methyl-acetamide] | +++ (30% ≤ Ymin < 50%) | 0.01 to 0.1
4 | CNC(=O)COc1cc2cc(Nc3nc(N4CCC(CN5[C@@H](C)CN(c6cccc7c(C8CCC(=O)NC8=O)nn(C)c67)C[C@@H]5C)CC4)ncc3Cl)cnc2n(C(C)C)c1=O (stereo partly drawn) [Compound 197b, 2-[[6-[[5-chloro-2-[4-[[(2S,6S)-4-[3-(2,6-dioxo-3-piperidyl)-1-methyl-indazol-7-yl]-2,6-dimethyl-piperazin-1-yl]methyl]-1-piperidyl]pyrimidin-4-yl]amino]-1-isopropyl-2-oxo-1,8-naphthyridin-3-yl]oxy]-N-methyl-acetamide] | ++++ (Ymin < 30%) | 0.01 to 0.1
5 | CNC(=O)COc1cc2cc(Nc3nc(N4CC5(CCC(Nc6ccc(F)c7c(C8CCC(=O)NC8=O)nn(C)c67)CC5)C4)ncc3Cl)cnc2n(C(C)C)c1=O (stereo not shown) [Compound 198, 2-[[6-[[5-chloro-2-[7-[[3-(2,6-dioxo-3-piperidyl)-4-fluoro-1-methyl-indazol-7-yl]amino]-2-azaspiro[3.5]nonan-2-yl]pyrimidin-4-yl]amino]-1-isopropyl-2-oxo-1,8-naphthyridin-3-yl]oxy]-N-methyl-acetamide] | ++ (50% ≤ Ymin < 70%) | 0.01 to 0.1
6 | CNC(=O)COc1cc2cc(Nc3nc(N4CCC(CN5CCN(c6cccc7c(C8CCC(=O)NC8=O)nn(C)c67)CC5(C)C)CC4)ncc3Cl)cnc2n(C(C)C)c1=O (stereo not shown) [Compound 200, 2-[[6-[[5-chloro-2-[4-[[4-[3-(2,6-dioxo-3-piperidyl)-1-methyl-indazol-7-yl]-2,2-dimethyl-piperazin-1-yl]methyl]-1-piperidyl]pyrimidin-4-yl]amino]-1-isopropyl-2-oxo-1,8-naphthyridin-3-yl]oxy]-N-methyl-acetamide] | +++ (30% ≤ Ymin < 50%) | 0.01 to 0.1
7 | CNC(=O)COc1cc2cc(Nc3nc(N4CCC5(CCC(CN6CCN(c7ccc8c(C9CCC(=O)NC9=O)nn(C)c8c7)CC6)CC5)CC4)ncc3Cl)cnc2n(C(C)C)c1=O (stereo not shown) [Compound 204, 2-((6-((5-chloro-2-(9-((4-(3-(2,6-dioxopiperidin-3-yl)-1-methyl-1H-indazol-6-yl)piperazin-1-yl)methyl)-3-azaspiro[5.5]undecan-3-yl)pyrimidin-4-yl)amino)-1-isopropyl-2-oxo-1,2-dihydro-1,8-naphthyridin-3-yl)oxy)-N-methylacetamide] | ++++ (Ymin < 30%) | 0.01 to 0.1

The next lines start with the values.

Row | Ymin (5 hr) | DC50 [µM] | SMILES
8 | +++ (30% ≤ Ymin < 50%) | 0.01 to 0.1 | CNC(=O)COc1cc2cc(Nc3nc(N4CCC(CN5CCN(c6cccc7c(C8CCC(=O)NC8=O)nn(C)c67)C[C@H]5C)CC4)ncc3F)cnc2n(C(C)C)c1=O (stereo partly drawn) [Compound 188a, 2-[[6-[[2-[4-[[(2R)-4-[3-(2,6-dioxo-3-piperidyl)-1-methyl-indazol-7-yl]-2-methyl-piperazin-1-yl]methyl]-1-piperidyl]-5-fluoro-pyrimidin-4-yl]amino]-1-isopropyl-2-oxo-1,8-naphthyridin-3-yl]oxy]-N-methyl-acetamide]
9 | ++++ (Ymin < 30%) | 0.01 to 0.1 | CNC(=O)COc1cc2cc(Nc3nc(N4CCC(CN5CCN(c6cccc7c(C8CCC(=O)NC8=O)nn(C)c67)C[C@@H]5C)CC4)ncc3F)cnc2n(C(C)C)c1=O (stereo partly drawn) [Compound 188b, 2-[[6-[[2-[4-[[(2S)-4-[3-(2,6-dioxo-3-piperidyl)-1-methyl-indazol-7-yl]-2-methyl-piperazin-1-yl]methyl]-1-piperidyl]-5-fluoro-pyrimidin-4-yl]amino]-1-isopropyl-2-oxo-1,8-naphthyridin-3-yl]oxy]-N-methyl-acetamide]
10 | ++++ (Ymin < 30%) | 0.01 to 0.1 | CNC(=O)COc1cc2cc(Nc3nc(N4CCC(F)(CN5CCN(c6cccc7c(C8CCC(=O)NC8=O)nn(C)c67)C[C@@H]5C)CC4)ncc3Cl)cnc2n(C(C)C)c1=O (stereo partly drawn) [Compound 189a, 2-[[6-[[5-chloro-2-[4-[[(2S)-4-[3-(2,6-dioxo-3-piperidyl)-1-methyl-indazol-7-yl]-2-methyl-piperazin-1-yl]methyl]-4-fluoro-1-piperidyl]pyrimidin-4-yl]amino]-1-isopropyl-2-oxo-1,8-naphthyridin-3-yl]oxy]-N-methyl-acetamide]
11 | ++ (50% ≤ Ymin < 70%) | 0.01 to 0.1 | CNC(=O)COc1cc2cc(Nc3cc(N4CCC(CN5CCN(c6ccc7c(C8CCC(=O)NC8=O)nn(C)c7c6)CC5)CC4)ncc3Cl)cnc2n(C(C)C)c1=O (stereo not shown) [Compound 190, 2-[[6-[[5-chloro-2-[4-[[4-[3-(2,6-dioxo-3-piperidyl)-1-methyl-indazol-6-yl]piperazin-1-yl]methyl]-1-piperidyl]-4-pyridyl]amino]-1-isopropyl-2-oxo-1,8-naphthyridin-3-yl]oxy]-N-methyl-acetamide]
12 | +++ (30% ≤ Ymin < 50%) | 0.01 to 0.1 | CNC(=O)COc1cc2cc(Nc3nc(N4CCN(CC5CCN(c6cccc7c(C8CCC(=O)NC8=O)nn(C)c67)CC5)C5(CC5)C4)ncc3Cl)cnc2n(C(C)C)c1=O (stereo not shown) [Compound 191, 2-[[6-[[5-chloro-2-[4-[[1-[3-(2,6-dioxo-3-piperidyl)-1-methyl-indazol-7-yl]-4-piperidyl]methyl]-4,7-diazaspiro[2.5]octan-7-yl]pyrimidin-4-yl]amino]-1-isopropyl-2-oxo-1,8-naphthyridin-3-yl]oxy]-N-methyl-acetamide]
13 | +++ (30% ≤ Ymin < 50%) | < 0.01 | CNC(=O)COc1cc2cc(Nc3nc(N4CCC(CN5CCN(c6ccc7c(C8CCC(=O)NC8=O)nn(C)c7c6)CC5(C)C)CC4)ncc3Cl)cnc2n(C(C)C)c1=O (stereo not shown) [Compound 196, 2-((6-((5-chloro-2-(4-((4-(3-(2,6-dioxopiperidin-3-yl)-1-methyl-1H-indazol-6-yl)-2,2-dimethylpiperazin-1-yl)methyl)piperidin-1-yl)pyrimidin-4-yl)amino)-1-isopropyl-2-oxo-1,2-dihydro-1,8-naphthyridin-3-yl)oxy)-N-methylacetamide]
14 | ++++ (Ymin < 30%) | < 0.01 | CNC(=O)COc1cc2cc(Nc3nc(N4CCC5(CCC(Nc6ccc7c(C8CCC(=O)NC8=O)nn(C)c7c6)CC5)CC4)ncc3Cl)cnc2n(C(C)C)c1=O (stereo not shown) [Compound 199, 2-[[6-[[5-chloro-2-[9-[[3-(2,6-dioxo-3-piperidyl)-1-methyl-indazol-6-yl]amino]-3-azaspiro[5.5]undecan-3-yl]pyrimidin-4-yl]amino]-1-isopropyl-2-oxo-1,8-naphthyridin-3-yl]oxy]-N-methyl-acetamide]
15 | ++++ (Ymin < 30%) | < 0.01 | CNC(=O)COc1cc2cc(Nc3nc(N4CC5(CC(Nc6ccc7c(C8CCC(=O)NC8=O)nn(C)c7c6)C5)C4)ncc3Cl)cnc2n(C(C)C)c1=O (stereo not shown) [Compound 202, 2-[[6-[[5-chloro-2-[6-[[3-(2,6-dioxo-3-piperidyl)-1-methyl-indazol-6-yl]amino]-2-azaspiro[3.3]heptan-2-yl]pyrimidin-4-yl]amino]-1-isopropyl-2-oxo-1,8-naphthyridin-3-yl]oxy]-N-methyl-acetamide]
16 | ++++ (Ymin < 30%) | < 0.01 | CNC(=O)COc1cc2cc(Nc3nc(N4CCC(O)(CN5CCC(c6cccc7c(C8CCC(=O)NC8=O)nn(C)c67)CC5)CC4)ncc3Cl)cnc2n(C(C)C)c1=O (stereo not shown) [Compound 203, 2-[[6-[[5-chloro-2-[4-[[4-[3-(2,6-dioxo-3-piperidyl)-1-methyl-indazol-7-yl]-1-piperidyl]methyl]-4-hydroxy-1-piperidyl]pyrimidin-4-yl]amino]-1-isopropyl-2-oxo-1,8-naphthyridin-3-yl]oxy]-N-methyl-acetamide]
17 | ++++ (Ymin < 30%) | < 0.01 | CNC(=O)COc1cc2cc(Nc3nc(N4CC5(CCC(CN6CCN(c7ccc8c(C9CCC(=O)NC9=O)nn(C)c8c7)CC6)CC5)C4)ncc3Cl)cnc2n(C(C)C)c1=O (stereo not shown) [Compound 205, 2-((6-((5-chloro-2-(7-((4-(3-(2,6-dioxopiperidin-3-yl)-1-methyl-1H-indazol-6-yl)piperazin-1-yl)methyl)-2-azaspiro[3.5]nonan-2-yl)pyrimidin-4-yl)amino)-1-isopropyl-2-oxo-1,2-dihydro-1,8-naphthyridin-3-yl)oxy)-N-methylacetamide]
